Experimental data from the CheMixHub ionic liquid set.

Test: xn = mol fraction of the nth substance listed
Conditions: 100 kPa

CCCCCCCC[n+]1ccccc1.[Br-] + NCC(=O)O + O
Conditions | electrical conductivity [S/m]
288.15 K, x2 = 0.0008947, x1 = 0.006107 | 1.24
288.15 K, x2 = 0.000895, x1 = 0.005825 | 1.21
288.15 K, x2 = 0.0008952, x1 = 0.005524 | 1.18
288.15 K, x2 = 0.0008955, x1 = 0.005206 | 1.15
288.15 K, x2 = 0.0008958, x1 = 0.004856 | 1.11
288.15 K, x2 = 0.0008962, x1 = 0.004472 | 1.07
288.15 K, x2 = 0.0008965, x1 = 0.004053 | 1
288.15 K, x2 = 0.0008969, x1 = 0.003596 | 0.923
288.15 K, x2 = 0.0008974, x1 = 0.003095 | 0.831
288.15 K, x2 = 0.0008979, x1 = 0.00254 | 0.716
288.15 K, x2 = 0.0008984, x1 = 0.00193 | 0.579
288.15 K, x2 = 0.0008988, x1 = 0.001523 | 0.48
288.15 K, x2 = 0.0008992, x1 = 0.00113 | 0.377
288.15 K, x2 = 0.0008996, x1 = 0.000679 | 0.257
288.15 K, x2 = 0.001793, x1 = 0.003383 | 0.886
288.15 K, x2 = 0.001794, x1 = 0.002789 | 0.766
288.15 K, x2 = 0.001795, x1 = 0.002127 | 0.621
288.15 K, x2 = 0.001796, x1 = 0.00171 | 0.522
288.15 K, x2 = 0.001797, x1 = 0.0007678 | 0.279
288.15 K, x2 = 0.001797, x1 = 0.001253 | 0.407
293.15 K, x2 = 0.0008947, x1 = 0.006101 | 1.41
293.15 K, x2 = 0.000895, x1 = 0.005819 | 1.38
293.15 K, x2 = 0.0008952, x1 = 0.005519 | 1.34
293.15 K, x2 = 0.0008955, x1 = 0.005201 | 1.3
293.15 K, x2 = 0.0008958, x1 = 0.00485 | 1.26
293.15 K, x2 = 0.0008962, x1 = 0.004469 | 1.21
293.15 K, x2 = 0.0008965, x1 = 0.00405 | 1.13
293.15 K, x2 = 0.0008969, x1 = 0.003594 | 1.05
293.15 K, x2 = 0.0008974, x1 = 0.003091 | 0.935
293.15 K, x2 = 0.0008979, x1 = 0.002538 | 0.809
293.15 K, x2 = 0.0008985, x1 = 0.001923 | 0.652
293.15 K, x2 = 0.0008988, x1 = 0.001521 | 0.542
293.15 K, x2 = 0.0008992, x1 = 0.00113 | 0.423
293.15 K, x2 = 0.0008996, x1 = 0.000679 | 0.285
293.15 K, x2 = 0.001793, x1 = 0.003379 | 1
293.15 K, x2 = 0.001794, x1 = 0.002785 | 0.864
293.15 K, x2 = 0.001795, x1 = 0.002125 | 0.701
293.15 K, x2 = 0.001796, x1 = 0.001708 | 0.589
293.15 K, x2 = 0.001797, x1 = 0.0007678 | 0.312
293.15 K, x2 = 0.001797, x1 = 0.001251 | 0.458
298.15 K, x2 = 0.0008947, x1 = 0.006092 | 1.59
298.15 K, x2 = 0.000895, x1 = 0.005812 | 1.55
298.15 K, x2 = 0.0008952, x1 = 0.005512 | 1.51
298.15 K, x2 = 0.0008955, x1 = 0.005195 | 1.47
298.15 K, x2 = 0.0008958, x1 = 0.004845 | 1.42
298.15 K, x2 = 0.0008962, x1 = 0.004462 | 1.35
298.15 K, x2 = 0.0008965, x1 = 0.004044 | 1.27
298.15 K, x2 = 0.000897, x1 = 0.003589 | 1.18
298.15 K, x2 = 0.0008974, x1 = 0.003088 | 1.05
298.15 K, x2 = 0.0008979, x1 = 0.002534 | 0.906
